Here are results for seven compounds from patent US8613914B2, “Peptidomimetic sulfamide compounds and antiviral uses thereof” (Novartis AG, priority 2009, dated 2013).

In one assay the test system is HCV. The following applies: ribavirin alone, cited from earlier work.
Assay [1] deals with HCV NS3-4A serine protease (full-length NS3-4A protein) (Hepatitis C virus genotype 1a (isolate 1) (HCV), UniProt P26664). Briefly: HCV NS3-4A protease assay. In kind it is biochemical, HCV genotype 1a. The following applies: strain HCV-1, fluorogenic peptide substrate, read-out: Protease assay Ex. 12 IC50. How it is done: The inhibitory activity of certain compounds of Table A against HCV NS3-4A serine protease is determined in a homogenous assay using the full-length NS3-4A protein (genotype 1a, strain HCV-1) and a commercially available internally-quenched fluorogenic peptide substrate as described by Taliani, M., et al. 1996 Anal. Biochem. 240:60-67, which is incorporated by reference in its entirety.
Chain of HCV NS3-4A serine protease (full-length NS3-4A protein) (P26664 1027-1657): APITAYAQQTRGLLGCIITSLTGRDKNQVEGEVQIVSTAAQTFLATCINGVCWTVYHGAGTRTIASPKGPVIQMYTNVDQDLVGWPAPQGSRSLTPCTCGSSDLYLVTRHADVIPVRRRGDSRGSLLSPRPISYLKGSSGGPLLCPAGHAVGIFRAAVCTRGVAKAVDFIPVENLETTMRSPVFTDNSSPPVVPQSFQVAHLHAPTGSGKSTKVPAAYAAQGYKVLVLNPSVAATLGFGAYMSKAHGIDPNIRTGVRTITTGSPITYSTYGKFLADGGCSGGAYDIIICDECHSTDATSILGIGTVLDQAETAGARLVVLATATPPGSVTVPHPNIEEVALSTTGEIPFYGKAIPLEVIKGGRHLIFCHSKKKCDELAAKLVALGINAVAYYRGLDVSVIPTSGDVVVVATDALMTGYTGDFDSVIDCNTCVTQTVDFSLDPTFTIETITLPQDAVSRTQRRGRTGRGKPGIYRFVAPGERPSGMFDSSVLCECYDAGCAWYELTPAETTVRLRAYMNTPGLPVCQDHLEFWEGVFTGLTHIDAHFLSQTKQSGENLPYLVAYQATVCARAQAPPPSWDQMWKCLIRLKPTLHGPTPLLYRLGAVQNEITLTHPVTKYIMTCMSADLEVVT
Chain of HCV NS3-4A serine protease (full-length NS3-4A protein) (P26664 1658-1711 partner): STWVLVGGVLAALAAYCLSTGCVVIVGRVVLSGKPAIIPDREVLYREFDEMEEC

Regarding `NC(=O)c1ncn([C@@H]2O[C@H](CO)[C@@H](O)[C@H]2O)n1` [Ribavirin, ribavirin], in the assay with HCV (patients), the “serum levels of HCV-RNA” value is on record as “does not lower serum levels of HCV-RNA”. In addition, the “patients in whom serum amino transferase levels are reduced to normal” value with HCV is 40%.
With `C=C[C@@H]1C[C@]1(NC(=O)[C@@H]1C[C@@]2(CN1C(=O)[C@@H](NC(=O)[C@@H](NC(=O)[C@H]1CCN1C(C)C)C(C)(C)C)C(C)(C)C)C(C)(C)C21CCC1)C(=O)NS(=O)(=O)N1CCCC1` [Compound 22, (5R,8S)-7-[(2S)-2-{[(2S)-2-({[(2R)-1-isopropylazetidin-2-yl]carbonyl}amino)-3,3-dimethylbutanoyl]amino}-3,3-dimethylbutanoyl]-10,10-dimethyl-N-{(1R,2S)-1-[(pyrrolidin-1-ylsulfonyl)carbamoyl]-2-vinylcyclopropyl}-7-azadispiro[3.0.4.1]decane-8-carboxamide], in assay [1], the IC50 came out at 95 nM.
`C=C[C@@H]1C[C@]1(NC(=O)[C@@H]1C[C@@]2(CN1C(=O)[C@@H](NC(=O)[C@@H](NC(=O)[C@@H]1CCCCN1C)C1CCCCC1)C(C)(C)C)C(C)(C)C21CCC1)C(=O)NS(=O)(=O)N(CC)CC` [Compound 118, (5R,8S)-7-[(2S)-2-{[(2S)-2-cyclohexyl-2-({[(2S)-1-methylpiperidin-2-yl]carbonyl}amino)acetyl]amino}-3,3-dimethylbutanoyl]-N-[(1R,2S)-1-{[(diethylamino)sulfonyl]carbamoyl}-2-vinylcyclopropyl]-10,10-dimethyl-7-azadispiro[3.0.4.1]decane-8-carboxamide]: in assay [1], the IC50 turned out to be 4.5 nM.
As to `CC[C@@H]1C[C@]1(NC(=O)[C@@H]1C[C@@]2(CN1C(=O)[C@@H](NC(=O)[C@@H](NC(=O)[C@@H]1CCCCN1C(C)C)C1CCCCC1)C(C)(C)C)C(C)(C)C21CCC1)C(=O)NS(=O)(=O)N(C)C(C)C` [Compound 141, (5R,8S)-7-[(2S)-2-{[(2S)-2-cyclohexyl-2-({[(2S)-1-isopropylpiperidin-2-yl]carbonyl}amino)acetyl]amino}-3,3-dimethylbutanoyl]-N-[(1R,2R)-2-ethyl-1-({[isopropyl(methyl)amino]sulfonyl}carbamoyl)cyclopropyl]-10,10-dimethyl-7-azadispiro[3.0.4.1]decane-8-carboxamide], in assay [1], the IC50 was found to be 8 nM.
With `C=C[C@@H]1C[C@]1(NC(=O)[C@@H]1C[C@@]2(CN1C(=O)[C@@H](NC(=O)[C@@H](NC(=O)[C@@H]1CCCCN1C(C)C)C1(C)CCCCC1)C1(C)CCOCC1)C(C)(C)C21CCC1)C(=O)NS(=O)(=O)N1CCCC1` [Compound 147, (5R,8S)-7-[(2S)-2-{[(2S)-2-({[(2S)-1-isopropylpiperidin-2-yl]carbonyl}amino)-2-(1-methylcyclohexyl)acetyl]amino}-2-(4-methyltetrahydro-2H-pyran-4-yl)acetyl]-10,10-dimethyl-N-{(1R,2S)-1-[(pyrrolidin-1-ylsulfonyl)carbamoyl]-2-vinylcyclopropyl}-7-azadispiro[3.0.4.1]decane-8-carboxamide], in assay [1], the IC50 was found to be 1.5 nM.
`C=C[C@@H]1C[C@]1(NC(=O)[C@@H]1C[C@@]2(CN1C(=O)[C@@H](NC(=O)[C@@H](NC(=O)[C@H]1CCN1C(C)C)C1CCCCC1)C(C)(C)C)C(C)(C)C21CCC1)C(=O)NS(=O)(=O)N1CCCC1` [Compound 18, (5R,8S)-7-[(2S)-2-{[(2S)-2-cyclohexyl-2-({[(2R)-1-isopropylazetidin-2-yl]carbonyl}amino)acetyl]amino}-3,3-dimethylbutanoyl]-10,10-dimethyl-N-{(1R,2S)-1-[(pyrrolidin-1-ylsulfonyl)carbamoyl]-2-vinylcyclopropyl}-7-azadispiro[3.0.4.1]decane-8-carboxamide]: in assay [1], the IC50 amounted to 10 nM.
Same read-out and setting: as for `C=C[C@@H]1C[C@]1(NC(=O)[C@@H]1C[C@@]2(CN1C(=O)[C@@H](NC(=O)[C@@H](NC(=O)CN1CCc3ccccc3C1)C1CCCCC1)C(C)(C)C)C(C)(C)C21CCC1)C(=O)NS(=O)(=O)N1CCCC1` [Compound 177, (5R,8S)-7-[(2S)-2-({cyclohexyl[(3,4-dihydroisoquinolin-2(1H)-ylacetyl)amino]acetyl}amino)-3,3-dimethylbutanoyl]-10,10-dimethyl-N-{(1R,2S)-1-[(pyrrolidin-1-ylsulfonyl)carbamoyl]-2-vinylcyclopropyl}-7-azadispiro[3.0.4.1]decane-8-carboxamide], the figure is 25 nM.
